One test deals with HLA-A*0301 (Homo sapiens, UniProt P04439). The experiment in a line: MHC-peptide binding assay, inhibition of binding of radiolabeled standard peptide. As to conditions: read-out: MHC binding affinity HLA-A*0301. The text has this:
(§1) Assays were as described.

The next test has as its target HLA-A*1101 (Homo sapiens, UniProt P04439, A114D/D185E/E176A/F33Y/L180Q/S129P/T187R). The test is described as above. As to conditions: unit not given in Table 1 (same values in Table 3 as IC50 nM), newly identified peptides, read-out: Affinity HLA-A*1101.
Excerpt: as §1

Another test has as its target HLA-A*3001 (Homo sapiens, UniProt P04439, D140H/D185E/E176W/F33S/G80R/H175R/K168Q/R138E/R41S). The test is described as above. Conditions: read-out: MHC binding affinity HLA-A*3001.
Excerpt: as §1

The next test deals with HLA-A*3101 (Homo sapiens, UniProt P04439, A270S/D185E/E176V/E277Q/F33T/G231S/G80R/H175R/I121M/I218V/I322F/K168Q/L300P/L318F/M331R/P217A/Q94H/R138Q/T323A/T345S/T97I/V358M). The test is described as above. Conditions: read-out: MHC binding affinity HLA-A*3101.
Excerpt: as §1

In the next test the target is HLA-A*3301 (Homo sapiens, UniProt P04439, A270S/D185E/E176V/E277Q/E87N/F33T/G231S/H175R/I121M/I218V/I322F/K168Q/K210R/L300P/L318F/M331R/P217A/Q86R/Q94H/R138Q/T323A/T345S/T97I/V358M/Y195H). The test is described as above. Conditions: read-out: MHC binding affinity HLA-A*3301.
Excerpt: as §1

A further test deals with HLA-A*6801 (Homo sapiens, UniProt P04439, A269V/D185E/E176V/E277Q/E87N/F33Y/G231S/I121M/I166T/I218V/L180W/L300P/L318F/N151K/P208A/P217A/Q86R/R169H/T345S). The test is described as above. As to conditions: read-out: MHC binding affinity HLA-A*6801.
Excerpt: as §1

The test system of test [1] is splenocytes of HLA-A*1101 transgenic mice. The experiment in a line: Ex vivo IFN-γ ELISpot assay with splenocytes of immunized HLA-A*1101 transgenic mice. Conditions: Figure 3b; mice immunized with mixture of peptides and adjuvants compared with LpKS9-AM9-RS9. Format: in vivo. How it is done: To evaluate peptide immunogenicity, HLA-A*1101 transgenic mice were inoculated subcutaneously (s.c.) at the base of the tail using a 30-gauge needle with single peptides or a mixture of CD8^+ T cell peptides (50 μg of each peptide per mouse) and PADRE ([…]) emulsified in 20 μg of GLA-SE (TLR4 agonist) with or without Pam2Cys. Pam2Cys concentration was 5 mg/ml. For immunization with lipopeptides, HLA-A*1101 mice received 20 nmol lipopeptide dissolved in PBS or emulsified in GLA-SE. As controls, mice were injected with PBS or PBS/GLA-SE. For the lipopeptide immunizations, the mice were vaccinated twice at intervals of three weeks. For the peptide immunizations, mice were immunized three times at intervals of two weeks. For challenge studies, mice were immunized with peptide emulsions and challenged intraperitoneally (i.p.) 14 days post-immunization using 10,000 Type II parasites.
Mice were euthanized 7 to 14 days after immunization. […]
PBMC were obtained, HLA haplotype was determined, and they were processed and cryopreserved as described. […] Results were expressed as number of spot forming cells (SFCs) per 10^6 PBMCs or per 10^6 murine splenocytes.
Two-tailed P values < 0.05 were considered statistically significant. […] The experiment in Figure 7b determined immune response and imaged mice in parallel.

Where no end group is shown, it is not given here.

The record followed here is publication PMC3009956, “Human immunome, bioinformatic analyses using HLA supermotifs and the parasite genome, binding assays, studies of human T cell responses, and immunization of HLA-A*1101 transgenic mice including novel adjuvants provide a foundation for HLA-A03 restricted CD8^+T cell epitope based, adjuvanted vaccine …” (Immunome Research, 2010).

HLA-A*3001, sequence (P04439 25-365 limits assumed, stated change not applied): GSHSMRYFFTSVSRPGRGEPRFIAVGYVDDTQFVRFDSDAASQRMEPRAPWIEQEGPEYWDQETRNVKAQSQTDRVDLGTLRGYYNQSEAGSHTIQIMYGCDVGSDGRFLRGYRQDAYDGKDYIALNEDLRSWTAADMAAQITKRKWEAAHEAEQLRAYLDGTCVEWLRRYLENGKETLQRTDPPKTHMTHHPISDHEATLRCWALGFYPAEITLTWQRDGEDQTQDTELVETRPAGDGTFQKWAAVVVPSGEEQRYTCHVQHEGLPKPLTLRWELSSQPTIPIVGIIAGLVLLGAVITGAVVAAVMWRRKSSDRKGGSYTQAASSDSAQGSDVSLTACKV

In the case of AVVSLLRLLK, the IC50 is 17 nM at HLA-A*0301; 34 nM on HLA-A*1101; 8.1 nM at HLA-A*3001; 1300 nM on HLA-A*3101; 1100 nM at HLA-A*3301; 94 nM at HLA-A*6801.
With RSFKDLLKK, in test [1], the “IFN-γ production on stimulation of spleen cells by the peptide” value is on record as “not significant”.
For SSAYVFSVK, the IC50 at HLA-A*0301 came to 12 nM; on HLA-A*1101, 10 nM; on HLA-A*3001, 1830 nM; at HLA-A*3101, 97 nM; at HLA-A*3301, 181 nM; at HLA-A*6801, 2.1 nM.
Regarding STFWPCLLR, the IC50 worked out at 22 nM at HLA-A*0301; 10 nM at HLA-A*1101; 1270 nM at HLA-A*3001; 1.2 nM at HLA-A*3101; 3.4 nM on HLA-A*3301; 0.97 nM on HLA-A*6801.
